{
  "source": "patent US10532085B2",
  "about": "“Methods for increasing intracellular activity of Hsp70” (Orphazyme A/S, priority 2010, dated 2020)",
  "key": {"[1]": {"tested_on": "primary fibroblasts from Niemann-Pick Disease type C1 patient", "assay": "Lysosomal cross-sectional area, laser confocal microscopy, NPC1 fibroblasts", "format": "cell-based, human", "conditions": "Alexa Fluor 488 labelled, added for 48 h; GM17918", "protocol": "FIG. 7: Test of rhHSP70 in non-sphingolipidosis. rhHSP70 labelled with Alexa Fluor 488 (for visualization of uptake) was added for 48 h to primary fibroblasts from Niemann-Pick Disease type C1 patient (Coriell Cell Repository ID: GM17918). Read-out: lysosomal cross-sectional area (Primary cellular pathology), performed by laser confocal microscopy."}, "[2]": {"assay": "Liposome 90° light scattering, BMP", "format": "binding", "conditions": "pH 6.0 vs pH 7.4", "from_the_text": "(§1) Thus, we investigated the interaction of Hsp70 with palmitoyl-oleoyl-phosphatidylcholine (POPC) large unilamellar vesicles (LUVs) containing various membrane-associated anionic lipids, i.e. palmitoyl-oleoyl-phosphatidylserine (POPS; primarily in plasma membrane), cardiolipin (primarily mitochondrial) and BMP (primarily in late endosomes/lysosomes). Taking into account the increasingly acidic milieu of the endo-lysosomal compartment upon maturation to lysosomes, we compared the protein-lipid interactions in neutral (pH 7.4) and acidic (pH 6.0) conditions. […] As reported earlier for POPS, all negatively charged lipids enhanced the binding of rHsp70 to the liposomes at neutral pH approximately 4-fold irrespective of the charge density on the liposome surface (ranging from −1 to −2).\nThe tryptophan fluorescence spectra (RFI) and liposome 90° light scattering (RSI) were analyzed in a HEPES buffer (20 mM HEPES, 0.1 mM EDTA, pH 7.4 or 6.0 as indicated) employing LUVs consisting of indicated lipids essentially as described in the art. For the RFI, LUVs were added in 10 μM aliquots and spectra recorded after a 20 min stabilization period. For the RSI, recombinant proteins were added in 0.12 nmol aliquots."}, "NPC−/− mice [3]": {"tested_on": "NPC−/− mice", "assay": "NPC1 in vivo pilot study: tissue cholesterol (Amplex Red Cholesterol Assay)", "protocol": "(§2) Eight treated (rHSP70) NPC^−/− versus eight control (PBS only) NPC^−/− controls. Mice were treated IP three times per week with either 10 mg/kg of rHSP70 or vehicle alone (PBS) from 3 weeks of age. Three control and three treated mice were sacrificed at 7 or 9 weeks old (i.e. after 4 or 6 weeks of treatment, respectively). Organs were perfused (PBS), weighed and frozen for biochemical and immunohistochemical analysis.\n(§3) Organs were homogenised without any added buffer and frozen as 10 ul aliquots. Fresh aliquots were reconstituted to 100 ul with PBS prior to biochemical analysis. Protein determination for each aliquot was performed by BCA protein assay. Cholesterol assays were performed using the Amplex Red Cholesterol Assay from Invitrogen^i. Sphingosine was isolated by sphingoid base extraction and analysed by HPLC^i. GSLs were extracted and analysed by fluorescent HPLC^i. All results were standardised for protein content."}, "NPDA cells": {"tested_on": "NPDA cells", "assay": "Lysosomal stability in NPDA cells", "format": "cell-based, Human", "protocol": "BMP binds ASM with high affinity and stimulates its ability to hydrolyze sphingomyelin to ceramide and phosphorylcholine. […] In order to test whether ASM is responsible for the lysosome stabilizing effect we treated the cells with desipramine, a well characterized pharmacological ASM inhibitor. […] It should be noted that akin to rHsp70, also rASM localized to the lysosomes.\nSub-confluent cells incubated with 2 μg/ml acridine orange for 15 min at 37° C. were washed, irradiated and analyzed in Hanks balanced salt solution complemented with 3% fetal calf serum. Cells for single cell imaging were selected from 8 pre-defined areas of each well in transmitted light-mode after which the same cells were immediately visualized and exposed to blue light from USH102 100W mercury arc burner (Ushio electric) installed in a U-ULS100HG housing (Olympus) for 20 sec. Fluorescence microscopy was performed on Olympus IX-70 inverted microscope with a LCPlanF1 ×20 objective with NA=0.40. Loss of lysosomal pH gradient was quantified by counting the loss of intense red staining. A more elaborate method for assaying lysosomal integrity was developed to handle the larger lysosomal compartment of the various fibroblasts used in this study. […] The resulting timelapse movies where subsequently analysed by the integrated Zeiss LSM DUO software."}, "NPC−/− mice [4]": {"tested_on": "NPC−/− mice", "assay": "NPC1 in vivo pilot study: gait analysis", "conditions": "10 mg/kg IP three times per week", "protocol": "as §2\nBehavioural experiments were performed from 3 weeks of age, as described previously. Briefly, tremor analysis was performed using an automated tremor monitor (San Diego instruments) Gait analysis was performed by painting front and hind paws with non-toxic paint and allowing the mice to walk over Whatman 3M paper. Paw placement was measured to determine how closely their hind paws superimposed their front paws, the length of the stride and the width of their gait."}, "[5]": {"assay": "Surface plasmon resonance (BIAcore) BMP interaction", "format": "binding", "conditions": "acidic pH", "from_the_text": "as §1\nIn order to investigate which part of the Hsp70 protein is responsible for the BMP binding, we measured the fluorescence shift of the tryptophans upon docking of rHsp70 and its mutants into BMP-containing liposomes. […] Next, we substituted the two tryptophans in Hsp70 with phenylalanines (W90F and W580F) and studied which tryptophan is responsible for the fluorescence shift induced by lipid binding. […] A more quantitative BIAcore analysis of the BMP—rHsp70 interaction confirmed that Hsp70 interacted with BMP mainly through its ATPase domain. […]"}, "NPC−/− mice [6]": {"tested_on": "NPC−/− mice", "assay": "NPC1 in vivo pilot study: brain sphingosine (HPLC)", "protocol": "as §2, §3"}},
  "data": [
    {"substance": "rHsp70: recombinant (human) heat shock protein 70; in some tests labelled with Alexa Fluor 488", "values": [
      {"measurement": "lysosomal cross-sectional area (primary cellular pathology)", "setting": "[1]", "value": "effectively reverts the lysosomal primary pathology"},
      {"measurement": "binding to BMP at acidic pH as compared to neutral pH", "setting": "[2]", "value": "~20", "unit": "times"},
      {"measurement": "cholesterol in peripheral tissue", "setting": "NPC−/− mice [3]; 7 week time point, compared to control", "value": "significant decreases"},
      {"measurement": "brain cholesterol", "setting": "NPC−/− mice [3]; 7 week time point, done in triplicate", "value": "decrease, although the decrease only occurred in one repeat of the experiment"},
      {"measurement": "cholesterol", "setting": "NPC−/− mice [3]; 9 week time point", "value": "no difference"},
      {"measurement": "stabilization of lysosomes in NPDA cells", "setting": "NPDA cells", "value": "stabilize the lysosomes"},
      {"measurement": "gait (front:hind paw placement, stride length, gait width)", "setting": "NPC−/− mice [4]", "value": "no difference"},
      {"measurement": "interaction with BMP (BIAcore)", "setting": "[5]", "value": "high affinity binding"},
      {"measurement": "sphingosine in brain", "setting": "NPC−/− mice [6]; 7 week", "value": "no significant difference"},
      {"measurement": "sphingosine in brain", "setting": "NPC−/− mice [6]; 9 week", "value": "slight, yet significant (p<0.005, **) increased levels of sphingosine"}
    ]}
  ]
}
